This note sets out measurements from US7329498B2, “HPV CD8+ T-cell epitopes” (Genencor International, Inc., priority 2003, dated 2008).

One assay deals with naive human CD8+ T-cells. The assay is described as follows: CD8+ I-MUNE® T-cell proliferation assay (tritiated thymidine incorporation, dendritic cells + CD8+ T-cells + anti-CD40). Particulars: HPV E7.16 9-mer peptides, 5 μg/ml, 45 donors, 1 μg/ml anti-CD40; positive response at least 2.95 times the background. It is filed as cell-based. On the procedure:
Fresh human peripheral blood cells were collected from humans of unknown exposure status to HPV. These cells were tested to determine antigenic epitopes in HPV 16 and 18, as described in Example 3.
Peripheral mononuclear blood cells (stored at room temperature, no older than 24 hours) were prepared for use as follows. PBMC's were isolated from buffy coat material by centrifuging over an underlay of Lymphoprep at 1000×g for 30 minutes. The interface layer was collected and washed and counted using the Cell-Dyn 3700 System (Abbott). Then, suspensions containing 10^8 PBMC's resuspended in 30 ml of AIM-V (Invitrogen) were prepared and then allowed to adhere to plastic T-75 culture flasks for two hours. The remainder of the cells were frozen at 5×10^7 cells/ml in 45% FCS (Gibco/BRL), 45% PBS w/o Ca & Mg (Mediatech), and 10% DMSO (Sigma). After the two hour PBMC incubation, non-adherent cells were removed from the flasks. The adherent cells were cultured in the flasks with 800 units/ml recombinant human GM-CSF (R&D Systems) and 100 units/ml recombinant human IL-4 (Endogen) at 37° C., 5% CO2. On day 5 of incubation, 50 units/ml recombinant human Il-1α (Endogen) and 0.2 units/ml recombinant human TNF-α were added to the cultures. Adherent and non-adherent dendritic cells were harvested, washed, and counted on day 7, following a one-hour treatment with […] mitomycin C (Sigma) and 10 mM EDTA.
Autologous CD8+ T-cells were prepared from frozen aliquots of PBMCs. After thawing and washing in DPBS, CD8+ T-cells were isolated using a commercially available CD8 negative selection kit (Dynal), according to the manufacturer's instructions. Cells were counted using the Abbott Cell-Dyn 3700 System. The purity obtained using these methods was generally found to be greater than 90%.
This Example describes the assay system used in the present invention. The basic test system is also referred to as the “I-MUNE®” assay system. The basic I-MUNE® assay system was modified as described herein to facilitate analysis of CD8+ T-cell responses. As described in greater detail below, the modifications used in the development of the present invention involved the use of CD8 negative selection beads on PBMC (i.e., instead of CD4). In addition, when CD8 cells were resuspended, […] of a 2 ug/ml anti-CD40 solution was added, before placing the DCs and peptides in the plates (the final concentration of anti-CD40 was 1 ug/ml); and 1 ul of 1 ug/ml PHA was used as a positive control, instead of tetanus toxoid.
In 96-well, round bottom plates, autologous dendritic cells and CD8+ T-cells were combined with test peptides. More specifically, in a volume of 100 μl/well, 2×10^4 dendritic cells in AIM V were combined with individual peptides (at a final peptide concentration of 5 μg/ml and a final DMSO concentration of 0.25%). After a one-hour incubation at 37° C., 5% CO2, 2×10^5 CD8+ T-cells with 2 μg/ml anti-CD40 (eBioscience; Clone 5C3 mouse IgG1, kappa) were added to the culture for a total volume of 200 μl and a final anti-CD40 concentration of 1 μg/ml per well. Negative control wells contained dendritic cells, CD8+ T-cells and 0.25% DMSO. Positive control wells contained dendritic cells, CD8+ T-cells (at the same concentrations as the test wells) and 0.25% DMSO with 5 μg/ml PHA (Sigma) (List). In some experiments, 1 ug/ml anti-IgG1 (eBioscience; Clone P3 mouse IgG1, kappa) was used as an isotype control for comparison purposes. Individual peptides were tested in duplicate or triplicate for each donor.
After 5 days of incubation at 37° C., 5% CO2, the cultures were pulsed with 0.25 μCi/well tritiated thymidine (Perkin Elmer). After a subsequent 24 hours of incubation, plates were harvested and assessed for incorporation of the tritiated thymidine (i.e., T-cell proliferation) using a Wallac Microbeta TriLux liquid scintillation counter (Perkin Elmer). Responses were averaged over the duplicate tests performed for each specimen. […]
A general note: Incorporation of labelled thymidine or its analogues reports DNA synthesis.
In the case of “DEIDGPAGO (DEIDGPAGQ; human papillomavirus) [HPV E7.16 Peptide 36, 9-mer peptide of HPV16 E7]”, the “Epitope Classification” value is “Moderate (“Moderate epitopes” are those epitopes that produce results that are at least two standard deviations above the mean or three times the background)”.

Take “DLLMGTLGI (human papillomavirus) [HPV E7.16 Peptide 81, 9-mer peptide of HPV16 E7]”: the “Epitope Classification” value is listed as “Minor (“Minor epitopes” are those that have a response rate that is at least twice the background value)”. On to “DLYCYEQLN (human papillomavirus) [HPV E7.16 Peptide 21, 9-mer peptide of HPV16 E7]”, for which the “Epitope Classification” value was “Major (a “major epitope” is defined as having a response rate at least three standard deviations above the mean background response rate)”. Turning to “DTPTLHEYM (human papillomavirus) [HPV E7.16 Peptide 4, 9-mer peptide of HPV16 E7]”, the “Epitope Classification” value is “Moderate (“Moderate epitopes” are those epitopes that produce results that are at least two standard deviations above the mean or three times the background)”. As to “EDLLMGTLG (human papillomavirus) [HPV E7.16 Peptide 80, 9-mer peptide of HPV16 E7]”, the “Epitope Classification” value is “Minor (“Minor epitopes” are those that have a response rate that is at least twice the background value)”. Turning to “GQAEPDRAH (human papillomavirus) [HPV E7.16 Peptide 43, 9-mer peptide of HPV16 E7]”, the “Epitope Classification” value is on record as “Minor (“Minor epitopes” are those that have a response rate that is at least twice the background value)”. Still for that read-out and setting: the entry for “HEYMLDLQP (human papillomavirus) [HPV E7.16 Peptide 9, 9-mer peptide of HPV16 E7]” is “Minor (“Minor epitopes” are those that have a response rate that is at least twice the background value)”; for “IRTLEDLLM (human papillomavirus) [HPV E7.16 Peptide 76, 9-mer peptide of HPV16 E7]” it is “Minor (“Minor epitopes” are those that have a response rate that is at least twice the background value)”; for IVCPICSQK [HPV E7.16 Peptide 89] it is “Minor (“Minor epitopes” are those that have a response rate that is at least twice the background value)”.

Regarding “IVTFCCKCD (human papillomavirus) [HPV E7.16 Peptide 54, 9-mer peptide of HPV16 E7]”, the “Epitope Classification” value is recorded as “Minor (“Minor epitopes” are those that have a response rate that is at least twice the background value)”. Regarding “LEDLLMGTL (human papillomavirus) [HPV E7.16 Peptide 79, 9-mer peptide of HPV16 E7]”, the “Epitope Classification” value was “Minor (“Minor epitopes” are those that have a response rate that is at least twice the background value)”. With “LHEYMLDLQ (human papillomavirus) [HPV E7.16 Peptide 8, 9-mer peptide of HPV16 E7]”, the “Epitope Classification” value is reported as “Minor (“Minor epitopes” are those that have a response rate that is at least twice the background value)”. On the same count and under the same terms, the entry for LLMGTLGIV [HPV E7.16 Peptide 82] is “Minor (“Minor epitopes” are those that have a response rate that is at least twice the background value)”. As for “LMGTLGIVC (human papillomavirus) [HPV E7.16 Peptide 83, 9-mer peptide of HPV16 E7]”, the “Epitope Classification” value is “Minor (“Minor epitopes” are those that have a response rate that is at least twice the background value)”. For the sequence “MGTLGIVCP (human papillomavirus) [HPV E7.16 Peptide 84, 9-mer peptide of HPV16 E7]”, the “Epitope Classification” value is “Minor (“Minor epitopes” are those that have a response rate that is at least twice the background value)”. Turning to “MHGDTPTLH (human papillomavirus) [HPV E7.16 Peptide 1, 9-mer peptide of HPV16 E7]”, the “Epitope Classification” value is “Minor (“Minor epitopes” are those that have a response rate that is at least twice the background value)”. As to “TLHEYMLDL (human papillomavirus) [HPV E7.16 Peptide 7, 9-mer peptide of HPV16 E7]”, the “Epitope Classification” value is recorded as “Minor (“Minor epitopes” are those that have a response rate that is at least twice the background value)”. On to “TPTLHEYML (human papillomavirus) [HPV E7.16 Peptide 5, 9-mer peptide of HPV16 E7]”, for which the “Epitope Classification” value was “Minor (“Minor epitopes” are those that have a response rate that is at least twice the background value)”.

Still in this assay, the particulars now being: HPV E7.18 9-mer peptides, 5 μg/ml, 58 donors, 1 μg/ml anti-CD40; positive response at least 2.95 times the background.
In the case of “ARRAEPQRH (human papillomavirus) [HPV E7.18 Peptide 51, 9-mer peptide of HPV18 E7]”, the “Epitope Classification” value was “Minor (“Minor epitopes” are those that have a response rate that is at least twice the background value)”.

Regarding “CKCEARIKL (human papillomavirus) [HPV E7.18 Peptide 66, 9-mer peptide of HPV18 E7]”, the “Epitope Classification” value is listed as “Minor (“Minor epitopes” are those that have a response rate that is at least twice the background value)”. On the same count and under the same terms, the entry for “PQNEIPVDL (human papillomavirus) [HPV E7.18 Peptide 17, 9-mer peptide of HPV18 E7]” is “Minor (“Minor epitopes” are those that have a response rate that is at least twice the background value)”; for “RIKLVVESS (human papillomavirus) [HPV E7.18 Peptide 71, 9-mer peptide of HPV18 E7]” it is “Minor (“Minor epitopes” are those that have a response rate that is at least twice the background value)”; for “SFVCPWCAS (human papillomavirus) [HPV E7.18 Peptide 95, 9-mer peptide of HPV18 E7]” it is “Minor (“Minor epitopes” are those that have a response rate that is at least twice the background value)”.
